Laboratory results taken from patent US20190151307A1 (priority 2017, published 2019).

How the values were obtained:
[1] = clinical; type: in vivo, human; details: single dose BIC 75 mg, fed, RIF 600 mg
Method: This was a Phase 1, open-label, multiple-dose, multiple-cohort, adaptive design study in healthy adult subjects.
The duration of dosing was 9 days (with a 3-day washout between the first and second doses of study treatment). The study duration (not including screening) was approximately 21 days. The study had n=15 subjects.
In addition, the following multiple-dose plasma PK parameters of GS-9883 were calculated, as applicable: Ctau, Cmax, Clast, AUCtau, Tmax, Tlast, t1/2, and CL/F.
Serial blood samples for intensive PK sampling were collected at the following time points relative to the morning dose of study drug(s) administered: 0 (pre-dose) and 0.5, 1, 1.5, 2, 3, 4, 6, 8, 10, 12, 16, 24, 36, 48, 72, and 96 hours post-dose on Days 1 and 15. Daily pre-dose PK sampling was collected at days 10 and 14.
The ANOVA model included treatment as a fixed effect and subject as a random effect.

[2] = tested on: HIV; details: cited from earlier work
[3] = Phase 1 study: steady-state plasma PK of TAF and TFV after B/F/TAF BID with rifampin vs B/F/TAF QD alone; type: in vivo, human; details: BID TAF administration (B/F/TAF BID+RIF), compared to prior PK results of TDF-containing regimens, FIG. 2
Method: This study evaluated the steady state pharmacokinetics of TAF, TAF metabolite TFV, and emtricitabine (FTC) following coadministration of bictegravir/emtricitabine/tenofovir alafenamide (B/F/TAF) fixed dose combination (FDC) twice daily with rifampin 600 mg once daily compared to those of B/F/TAF FDC once daily administered alone.
In this Phase 1, open-label, parallel multiple dose study, healthy volunteers were assigned to one of two cohorts (cohort 1 (n=26) or cohort 2 (n=26)) and received study treatments beginning on day 1 and continuing for 28 days (cohort 1) or 35 days (cohort 2).
The duration of the study was approximately 57 days for cohort 1 and approximately 44 days for cohort 2. […]
Pharmacokinetic assessments of plasma PK and PBMC PK were evaluated. […] PK parameters of TFV-DP and FTC-TP in PBMCs were calculated as applicable and included AUCtau, Ctrough, Cmax, accumulation ratios, and t1/2 with and without RIF. […]
Plasma concentrations of TAF and TFV were determined and pharmacokinetics were evaluated as applicable.
Plasma concentrations were determined using validated liquid chromatography-tandem mass spectrometry (LC/MS/MS) assays. Intracellular PBMC TFV-DP concentrations were determined via a validated LC/MS/MS assay combined with PBMC cell counting via a DNA quantitation procedure. […]

[4] = intracellular TFV-DP with TDF; cited from earlier work
[5] = peripheral blood mononuclear cells (PBMC) isolated from patients; cited from earlier work

O=C(NCc1c(F)cc(F)cc1F)c1cn2c(c(O)c1=O)C(=O)N1[C@H]3CC[C@H](C3)O[C@@H]1C2 [BIC]
half-life ([1]; human, in vivo, BIC t1/2, plasma, median per text): ~1090 min
BIC % AUCexp, Mean (% CV) ([1]; plasma): 3.1%
BIC CL/F, Mean (% CV) ([1]; plasma): 545.1 mL/h
BIC Clast, Mean (% CV) ([1]; plasma): 192.7 ng/mL
BIC Tlast ([1]; plasma): 95.93 h

CC(C)OC(=O)[C@H](C)N[P@](=O)(CO[C@H](C)Cn1cnc2c(N)ncnc21)Oc1ccccc1 [TAF, 9-[(R)-2-[[(S)-[[(S)-1-(isopropoxycarbonyl)ethyl]amino]phenoxyphosphinyl]-methoxy]propyl]adenine]
enhancement in anti-HIV activity in cell culture of TAF over TFV [2]: 600 fold
total overall systemic TFV plasma exposure over 24 hours vs TDF-containing regimens [3]: markedly lower

CC(C)OC(=O)OCOP(=O)(CO[C@H](C)Cn1cnc2c(N)ncnc21)OCOC(=O)OC(C)C [TDF, 9-[(R)-2-[[bis[[(isopropoxycarbonyl)oxy]methoxy]phosphinyl]methoxy]propyl]adenine]
historical steady-state TFV-DP threshold effectiveness concentration [4]: 85-222 fmol/10^6 cells

C[C@@H](Cn1cnc2c(N)ncnc21)OCP(=O)(O)OP(=O)(O)OP(=O)(O)O [TFV-DP]
intracellular half-life [5]: 150 h
